Test results reported in patent US9101638B2, “Boronic acid derivatives and therapeutic uses thereof” (Rempex Pharmaceuticals, Inc., priority 2013, dated 2015).

Legend:
Chymase = biological target: T1, Chymase (Homo sapiens, UniProt P23946); assay: Serine protease inhibition: chymase; format: biochemical, mammalian; details: Table 8A, positive controls, numeric; read-out: IC50 Chymase
T1 construct: purchased Enzo Lifescience BML-SE281
T1 sequence (P23946 22-247): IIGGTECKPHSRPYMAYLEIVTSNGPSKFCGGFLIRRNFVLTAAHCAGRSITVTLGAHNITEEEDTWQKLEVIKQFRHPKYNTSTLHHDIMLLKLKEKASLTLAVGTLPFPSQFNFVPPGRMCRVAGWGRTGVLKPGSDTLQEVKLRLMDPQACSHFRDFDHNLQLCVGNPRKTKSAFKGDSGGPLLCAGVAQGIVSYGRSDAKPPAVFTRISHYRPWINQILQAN
Description: (§1) The effect of selected BLIs on the enzymatic activity of some common mammalian serine proteases was evaluated.
(§2) 50 μl of the diluted enzyme was mixed with 50 μl of inhibitor at various concentrations and 50 μl of corresponding buffer (Table 7). Reaction mixtures were incubated for 10 min at 37° C. Subsequently, 50 μl of corresponding substrate (Table 7) was added and absorbance or fluorescence was monitored for 30 min on SpectraMax M2 plate reader (Molecular Devices). 4-(2-Aminoethyl)benzenesulfonyl fluoride hydrochloride (AEBSF) and leupeptin were used as positive controls. Rates of reaction were calculated and presented relative to “no treatment” control.

Thrombin = biological target: T2, Thrombin (Homo sapiens, UniProt P00734); assay: Serine protease inhibition: thrombin; format: biochemical, mammalian; details: Table 8A, positive controls, numeric; read-out: IC50 Thrombin
T2 construct: Thrombin; MPBio; 19491880; purchased MPBio 19491880
Description: as §1, §2

Elastase = biological target: T3, Elastase (Sus scrofa, UniProt P00772); assay: Serine protease inhibition: elastase; format: biochemical, mammalian
T3 construct: purchased Calbiochem 324682
T3 sequence (P00772 27-266): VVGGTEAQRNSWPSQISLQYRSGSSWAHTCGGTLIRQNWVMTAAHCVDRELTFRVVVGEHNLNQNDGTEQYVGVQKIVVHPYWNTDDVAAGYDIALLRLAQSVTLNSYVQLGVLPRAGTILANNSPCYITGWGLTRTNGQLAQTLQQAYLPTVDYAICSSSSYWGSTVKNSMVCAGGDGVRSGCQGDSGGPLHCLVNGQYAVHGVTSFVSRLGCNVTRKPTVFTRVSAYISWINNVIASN
Description: as §1, §2

Neutrophil elastase = biological target: T4, Neutrophil elastase (Homo sapiens, UniProt P08246); assay: Serine protease inhibition: neutrophil elastase; format: biochemical, mammalian; details: Table 8B; read-out: IC50 Neutrophil elastase
T4 construct: purchased Calbiochem 324681
T4 sequence (P08246 30-267): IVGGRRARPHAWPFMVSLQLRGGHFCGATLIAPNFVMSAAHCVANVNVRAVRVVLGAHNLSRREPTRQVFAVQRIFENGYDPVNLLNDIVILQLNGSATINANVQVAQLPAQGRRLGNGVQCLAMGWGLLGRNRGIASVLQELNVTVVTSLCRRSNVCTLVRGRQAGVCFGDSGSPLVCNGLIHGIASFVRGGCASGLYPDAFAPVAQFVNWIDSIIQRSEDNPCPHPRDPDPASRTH
Description: as §1, §2

HtrA2 = biological target: T5, HtrA2 (Homo sapiens, UniProt O43464); assay: Serine protease inhibition: HtrA2; format: biochemical, mammalian
T5 sequence (O43464 134-458): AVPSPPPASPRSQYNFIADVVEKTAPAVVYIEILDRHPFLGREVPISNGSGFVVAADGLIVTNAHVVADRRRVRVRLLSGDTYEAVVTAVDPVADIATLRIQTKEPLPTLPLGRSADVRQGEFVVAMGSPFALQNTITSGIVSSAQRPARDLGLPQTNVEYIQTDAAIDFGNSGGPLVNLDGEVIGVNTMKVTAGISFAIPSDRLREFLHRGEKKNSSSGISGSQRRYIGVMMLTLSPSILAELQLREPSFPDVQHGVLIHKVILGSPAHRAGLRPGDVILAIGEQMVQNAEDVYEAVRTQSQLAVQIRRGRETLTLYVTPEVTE
Description: as §1, §2

Urokinase = biological target: T6, Urokinase (Homo sapiens, UniProt P00749); assay: Serine protease inhibition: urokinase; format: biochemical, mammalian; details: Table 8A, positive controls, numeric; read-out: IC50 Urokinase
T6 construct: purchased Calbiochem 672112
Description: as §1, §2

CathepsinA = biological target: T7, CathepsinA (Homo sapiens, UniProt P10619); assay: Serine protease inhibition: cathepsin A; format: biochemical, mammalian
T7 construct: purchased R&D Systems 1049-SE
T7 sequence (P10619 29-480): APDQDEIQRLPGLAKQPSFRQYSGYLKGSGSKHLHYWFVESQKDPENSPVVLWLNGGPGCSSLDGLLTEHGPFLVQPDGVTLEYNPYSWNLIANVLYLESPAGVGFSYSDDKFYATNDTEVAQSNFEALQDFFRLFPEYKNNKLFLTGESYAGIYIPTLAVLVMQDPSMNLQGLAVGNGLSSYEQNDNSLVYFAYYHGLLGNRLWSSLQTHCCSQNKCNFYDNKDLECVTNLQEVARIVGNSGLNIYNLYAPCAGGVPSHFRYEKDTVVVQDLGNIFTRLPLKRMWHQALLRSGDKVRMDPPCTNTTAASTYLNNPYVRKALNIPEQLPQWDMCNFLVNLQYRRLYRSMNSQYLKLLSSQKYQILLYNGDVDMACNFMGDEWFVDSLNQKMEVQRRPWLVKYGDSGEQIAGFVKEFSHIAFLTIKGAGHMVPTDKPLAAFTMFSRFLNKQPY
Description: as §1, §2

Trypsin = biological target: T8, Trypsin (Bos taurus, UniProt P00760); assay: Serine protease inhibition: trypsin; format: biochemical, mammalian
T8 construct: purchased Calbiochem 6502
T8 sequence (P00760 24-246): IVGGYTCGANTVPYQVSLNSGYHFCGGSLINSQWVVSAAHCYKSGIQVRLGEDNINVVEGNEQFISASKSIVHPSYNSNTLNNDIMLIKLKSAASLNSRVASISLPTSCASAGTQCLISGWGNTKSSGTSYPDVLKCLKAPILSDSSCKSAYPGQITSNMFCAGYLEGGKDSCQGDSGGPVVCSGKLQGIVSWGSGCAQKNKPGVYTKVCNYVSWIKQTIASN
Description: as §1, §2

Chymotrypsin = biological target: T9, Chymotrypsin (Bos taurus, UniProt P00766); assay: Serine protease inhibition: chymotrypsin; format: biochemical, mammalian
T9 construct: purchased Calbiochem 230832
Description: as §1, §2

[1] = biological target: T10, Dipeptidyl peptidase 7 (DPP7) (Homo sapiens, UniProt Q9UHL4); assay: Serine protease inhibition: DPP7; format: biochemical, mammalian
T10 construct: purchased R&D Systems 3438-SE
Description: as §1, §2

[2] = biological target: T11, Dipeptidyl peptidase 8 (DPP8) (Homo sapiens, UniProt Q6V1X1); assay: Serine protease inhibition: DPP8; format: biochemical, mammalian
T11 construct: purchased BPS Bioscience 80080
T11 sequence (Q6V1X1 whole entry): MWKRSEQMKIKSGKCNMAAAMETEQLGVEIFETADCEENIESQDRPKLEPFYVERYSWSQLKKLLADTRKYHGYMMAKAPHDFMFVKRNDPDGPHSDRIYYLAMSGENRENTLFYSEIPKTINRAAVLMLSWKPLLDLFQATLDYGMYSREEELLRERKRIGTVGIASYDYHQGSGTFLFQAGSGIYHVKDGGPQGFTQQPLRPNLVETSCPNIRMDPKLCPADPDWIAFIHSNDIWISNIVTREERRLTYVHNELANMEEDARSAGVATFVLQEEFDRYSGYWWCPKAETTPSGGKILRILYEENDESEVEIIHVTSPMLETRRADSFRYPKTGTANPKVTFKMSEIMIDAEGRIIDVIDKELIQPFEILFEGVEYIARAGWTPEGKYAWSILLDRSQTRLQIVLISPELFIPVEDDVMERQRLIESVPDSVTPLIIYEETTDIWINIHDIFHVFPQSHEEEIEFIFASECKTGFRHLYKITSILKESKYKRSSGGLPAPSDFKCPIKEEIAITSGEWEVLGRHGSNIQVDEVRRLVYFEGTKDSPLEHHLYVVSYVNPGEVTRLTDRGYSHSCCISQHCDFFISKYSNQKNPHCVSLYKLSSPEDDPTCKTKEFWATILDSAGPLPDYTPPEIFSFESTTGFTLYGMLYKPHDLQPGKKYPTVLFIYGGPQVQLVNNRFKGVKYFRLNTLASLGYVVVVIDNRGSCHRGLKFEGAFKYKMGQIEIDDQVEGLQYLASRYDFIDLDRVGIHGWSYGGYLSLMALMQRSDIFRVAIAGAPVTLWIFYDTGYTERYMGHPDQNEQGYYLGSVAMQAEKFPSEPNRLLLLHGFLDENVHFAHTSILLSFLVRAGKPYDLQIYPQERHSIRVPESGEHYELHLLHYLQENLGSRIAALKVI
Description: as §1, §2

[3] = biological target: T12, Dipeptidyl peptidase 9 (DPP9) (Homo sapiens, UniProt Q86TI2); assay: Serine protease inhibition: DPP9; format: biochemical, mammalian
T12 construct: purchased BPS Bioscience 80090
T12 sequence (Q86TI2 whole entry): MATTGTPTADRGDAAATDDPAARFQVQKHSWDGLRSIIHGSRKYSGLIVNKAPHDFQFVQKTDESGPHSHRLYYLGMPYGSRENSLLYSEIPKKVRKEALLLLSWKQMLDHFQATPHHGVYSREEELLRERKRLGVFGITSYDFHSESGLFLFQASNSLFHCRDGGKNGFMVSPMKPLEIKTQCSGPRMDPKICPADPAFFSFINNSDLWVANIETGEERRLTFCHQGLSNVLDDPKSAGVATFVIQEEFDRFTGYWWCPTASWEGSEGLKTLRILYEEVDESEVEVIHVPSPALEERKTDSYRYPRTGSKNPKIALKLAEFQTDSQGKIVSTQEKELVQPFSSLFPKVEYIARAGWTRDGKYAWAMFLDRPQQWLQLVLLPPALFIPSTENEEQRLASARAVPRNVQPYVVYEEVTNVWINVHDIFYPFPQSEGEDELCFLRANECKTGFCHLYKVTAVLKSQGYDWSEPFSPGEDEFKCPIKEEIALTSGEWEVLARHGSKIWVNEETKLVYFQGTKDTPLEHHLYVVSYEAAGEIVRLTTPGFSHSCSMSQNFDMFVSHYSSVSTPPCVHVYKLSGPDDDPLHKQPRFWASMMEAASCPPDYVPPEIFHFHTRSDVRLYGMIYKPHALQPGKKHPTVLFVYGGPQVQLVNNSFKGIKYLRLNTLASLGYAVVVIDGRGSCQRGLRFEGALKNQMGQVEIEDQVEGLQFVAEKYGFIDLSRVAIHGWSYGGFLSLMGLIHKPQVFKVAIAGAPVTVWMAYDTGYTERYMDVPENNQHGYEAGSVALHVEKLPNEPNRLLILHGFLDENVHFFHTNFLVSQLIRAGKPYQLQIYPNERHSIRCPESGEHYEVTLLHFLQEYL
Description: as §1, §2

Plasmin = biological target: T13, Plasmin (Homo sapiens, UniProt P00747); assay: Serine protease inhibition: plasmin; format: biochemical, mammalian
T13 construct: Plasmin; MPBio; 19419890; purchased MPBio 19419890
T13 sequence (P00747 581-810 limits assumed, species assumed): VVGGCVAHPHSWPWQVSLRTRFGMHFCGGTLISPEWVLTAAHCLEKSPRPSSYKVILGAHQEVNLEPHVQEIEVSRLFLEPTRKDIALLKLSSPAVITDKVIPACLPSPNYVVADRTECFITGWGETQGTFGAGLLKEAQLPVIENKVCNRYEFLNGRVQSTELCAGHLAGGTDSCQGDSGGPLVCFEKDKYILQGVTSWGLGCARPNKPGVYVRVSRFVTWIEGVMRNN
T13 sequence (P00747 97-580 partner limits assumed, species assumed): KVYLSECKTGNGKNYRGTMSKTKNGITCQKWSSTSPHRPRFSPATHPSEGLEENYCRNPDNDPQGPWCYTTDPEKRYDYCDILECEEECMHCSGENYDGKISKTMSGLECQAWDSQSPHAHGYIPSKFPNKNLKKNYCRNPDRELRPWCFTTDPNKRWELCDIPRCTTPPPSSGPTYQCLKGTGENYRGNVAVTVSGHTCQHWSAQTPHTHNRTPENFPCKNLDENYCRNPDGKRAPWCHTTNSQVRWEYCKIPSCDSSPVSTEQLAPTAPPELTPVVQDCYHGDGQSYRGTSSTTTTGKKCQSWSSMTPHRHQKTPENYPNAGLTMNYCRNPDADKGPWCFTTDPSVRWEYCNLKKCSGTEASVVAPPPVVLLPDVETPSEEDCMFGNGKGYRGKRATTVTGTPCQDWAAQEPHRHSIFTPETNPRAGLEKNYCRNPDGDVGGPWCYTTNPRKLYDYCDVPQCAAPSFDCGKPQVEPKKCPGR
Description: as §1, §2

P99 = P99 (Enterobacter cloacae, UniProt P05364); assay: Inhibition of nitrocefin cleavage by purified P99; format: biochemical; details: nitrocefin reporter substrate, purified enzyme; read-out: Ki (P99, NCF)
Chain of P99 (P05364 21-381): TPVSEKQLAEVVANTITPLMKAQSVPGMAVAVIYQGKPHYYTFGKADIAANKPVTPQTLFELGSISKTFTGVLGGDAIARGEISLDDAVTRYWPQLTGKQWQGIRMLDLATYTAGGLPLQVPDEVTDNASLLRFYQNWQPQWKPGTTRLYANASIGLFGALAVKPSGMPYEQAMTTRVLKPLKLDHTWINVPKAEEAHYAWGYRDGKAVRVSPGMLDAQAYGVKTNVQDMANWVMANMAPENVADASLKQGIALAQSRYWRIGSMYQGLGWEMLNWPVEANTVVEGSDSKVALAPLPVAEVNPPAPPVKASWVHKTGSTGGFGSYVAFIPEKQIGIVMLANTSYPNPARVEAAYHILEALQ
Description: (§3) Purified enzymes were mixed with various concentrations of inhibitors in reaction buffer and incubated for 10 min at room temperature. Nitrocefin was added and substrate cleavage profiles were recorded at 490 nm every 10 sec for 10 min.

ec302 (TEM-10) [4] = assay: Potentiation of tigemonam, strain ec302; format: cell-based
ec308 (SHV-5) [5] = assay: Potentiation of aztreonam, strain ec308; format: cell-based; details: minimum BLI concentration inhibiting growth with 4 μg/mL aztreonam
KP1004 (K-2) = assay: Potentiation of aztreonam, strain KP1004; format: cell-based; details: minimum BLI concentration inhibiting growth with 4 μg/mL aztreonam
ec308 (SHV-5) [6] = assay: Potentiation of tigemonam, strain ec308; format: cell-based; details: minimum BLI concentration inhibiting growth with 4 μg/mL tigemonam
CMY-2 = CMY-2 (Klebsiella pneumoniae, UniProt Q48434); assay: Inhibition of nitrocefin cleavage by purified CMY-2; format: biochemical; details: nitrocefin reporter substrate, purified enzyme; read-out: Ki (CMY-2, NCF)
Chain of CMY-2 (Q48434 21-381, species assumed): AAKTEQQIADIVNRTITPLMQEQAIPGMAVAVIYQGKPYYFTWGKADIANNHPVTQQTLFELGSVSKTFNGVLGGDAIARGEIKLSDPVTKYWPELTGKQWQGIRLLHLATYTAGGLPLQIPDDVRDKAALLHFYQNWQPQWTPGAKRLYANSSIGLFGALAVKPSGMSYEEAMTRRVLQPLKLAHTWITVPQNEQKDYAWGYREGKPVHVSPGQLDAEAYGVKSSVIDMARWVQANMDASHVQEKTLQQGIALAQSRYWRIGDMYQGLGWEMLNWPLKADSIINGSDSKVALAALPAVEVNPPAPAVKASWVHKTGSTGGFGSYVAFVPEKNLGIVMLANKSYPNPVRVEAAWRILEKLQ
Description: as §3

OXA-48 = OXA-48 (Klebsiella pneumoniae, UniProt Q6XEC0); assay: Inhibition of nitrocefin cleavage by purified OXA-48; format: biochemical; details: nitrocefin reporter substrate, purified enzyme; read-out: Ki (OXA-48, NCF)
Chain of OXA-48 (Q6XEC0 23-265 limits assumed): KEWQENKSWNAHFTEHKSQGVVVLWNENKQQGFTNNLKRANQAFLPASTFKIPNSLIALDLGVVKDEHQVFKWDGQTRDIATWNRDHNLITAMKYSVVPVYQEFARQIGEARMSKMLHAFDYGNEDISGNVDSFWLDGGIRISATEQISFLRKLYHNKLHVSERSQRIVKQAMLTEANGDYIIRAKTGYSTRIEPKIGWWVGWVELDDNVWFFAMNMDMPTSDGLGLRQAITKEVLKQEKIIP
Description: as §3

SHV-12 = SHV-12 (Klebsiella pneumoniae, UniProt P0AD64, E235K/G234S/L31Q); assay: Inhibition of nitrocefin cleavage by purified SHV-12; format: biochemical; details: nitrocefin reporter substrate, purified enzyme; read-out: Ki (SHV-12, NCF)
Chain of SHV-12 (P0AD64 22-286 L31Q/G234S/E235K): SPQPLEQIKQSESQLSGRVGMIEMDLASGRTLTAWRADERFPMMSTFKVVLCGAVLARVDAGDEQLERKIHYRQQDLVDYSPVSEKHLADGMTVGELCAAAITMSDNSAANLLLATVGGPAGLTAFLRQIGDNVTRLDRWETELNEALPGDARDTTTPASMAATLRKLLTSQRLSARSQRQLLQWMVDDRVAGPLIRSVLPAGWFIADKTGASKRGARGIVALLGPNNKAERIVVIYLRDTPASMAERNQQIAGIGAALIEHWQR
Outline: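 10 min RT preincubation, enzyme with inhibitor series in reaction buffer. Substrate nitrocefin; kinetic read 490 nm, 10 sec intervals, 10 min total.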

KP1009 (CTX-M-15) [7] = assay: Potentiation of tigemonam, strain KP1009; details: minimum BLI concentration inhibiting growth with 4 μg/mL tigemonam
KP1005 (CTX-M-14) = assay: Potentiation of aztreonam, strain KP1005; format: cell-based
CTX-M-14 = CTX-M-14 (Escherichia coli, UniProt Q9L5C7); assay: Inhibition of nitrocefin cleavage by purified CTX-M-14; format: biochemical; details: nitrocefin reporter substrate, purified enzyme; read-out: Ki (CTX-M-14, NCF)
Chain of CTX-M-14 (Q9L5C7 entry or part of it): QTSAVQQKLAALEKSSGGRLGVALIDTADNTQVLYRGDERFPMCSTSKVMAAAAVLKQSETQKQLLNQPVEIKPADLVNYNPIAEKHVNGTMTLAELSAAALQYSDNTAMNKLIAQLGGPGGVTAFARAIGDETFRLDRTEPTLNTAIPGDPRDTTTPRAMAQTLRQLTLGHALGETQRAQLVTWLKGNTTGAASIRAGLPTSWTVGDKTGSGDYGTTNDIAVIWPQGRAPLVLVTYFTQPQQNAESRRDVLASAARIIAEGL
Description: as §3

ECL1002 = assay: Potentiation of aztreonam, strain ECL1002; format: cell-based; details: minimum BLI concentration inhibiting growth with 4 μg/mL aztreonam
EC1010 (CMY-6) [8] = assay: Potentiation of aztreonam, strain EC1010; format: cell-based
EC1010 (CMY-6) [9] = format: cell-based
ec302 (TEM-10) [10] = assay: Potentiation of aztreonam, strain ec302; format: cell-based
PAM1154/KPC-2 = assay: Biapenem potentiation in PAM1154/KPC-2 (MexAB-OprM lacking); format: cell-based, Pseudomonas aeruginosa
Description: (§4) Efflux of BLIs from Pseudomonas aeruginosa by the MexAB-OprM efflux pump was also evaluated. […] Due to expression of KPC-2 both strains became resistant to biapenem. […] Potency of BLIs to potentiate biapenem in these strains was determined. […] The ratio of MPC64 values for each BLI in PAM1032/KPC-2 (efflux proficient) and PAM1154/KPC-2 (efflux deficient) was determined to generate the Efflux Index (EI).

KP1009 (CTX-M-15) [11] = assay: Potentiation of aztreonam, strain KP1009; format: cell-based
PAM1032/KPC-2 = assay: Biapenem potentiation in PAM1032/KPC-2 (MexAB-OprM overexpressed); format: cell-based, Pseudomonas aeruginosa; details: BLI potency to decrease biapenem MIC 64-fold, 32 to 0.5 μg/ml; efflux proficient strain
Description: as §4

With `CC(=O)N[C@@H](CC(C)C)C(=O)N[C@@H](CC(C)C)C(=O)N[C@H](C=O)CCCNC(=N)N` [Leupeptin, leupeptin, reference compound] the IC50 (Chymase) was over 200 µM, the IC50 (Thrombin) was 15 µM and the IC50 (Elastase) was over 200 µM. The IC50 (Neutrophil elastase) was 15 to 500 µM, the IC50 (HtrA2) was over 500 µM and the IC50 (Urokinase) was 22 µM. It also gave an IC50 (CathepsinA) of 15 to 500 µM, an IC50 (Trypsin) of under 0.27 µM and an IC50 (Chymotrypsin) of over 200 µM. It also gave an IC50 [1] of 15 to 500 µM, an IC50 [2] of 15 to 500 µM and an IC50 [3] of 15 to 500 µM. The IC50 (Plasmin) was 5 µM.

For `NC(=O)C(=O)N[C@H]1Cc2cccc(C(=O)O)c2OB1O` [Compound 17, (R)-3-(2-amino-2-oxoacetamido)-2-hydroxy-3,4-dihydro-2H-benzo[e][1,2]oxaborinine-8-carboxylic acid], the Ki (P99) was 0.001 to 0.01 µM, the “TIG MPC4 TEM-10 ec302” value (ec302 (TEM-10) [4]) was “X (key: X = MIC of less than 1 μg/mL; Y = MIC of 1 μg/mL to 10 μg/mL; Z = MIC of greater than 10 μg/mL)” and the “AZT MPC4 SHV-5 ec308” value (ec308 (SHV-5) [5]) was “X (X = MIC of less than 1 μg/mL)”. For the same compound, the “AZT MPC4 K-2 KP1004” value (KP1004 (K-2)) was “Y (Y = MIC of 1 μg/mL to 10 μg/mL)”, the “TIG MPC4 SHV-5 ec308” value (ec308 (SHV-5) [6]) was “Y (Y = MIC of 1 μg/mL to 10 μg/mL)” and the Ki (CMY-2) was 0.001 to 0.01 µM. For the same compound, the Ki (OXA-48) was 0.001 to 0.01 µM, the Ki (SHV-12) was 0.001 to 0.01 µM and the “TIG MPC4 CTX-M-15 KP1009” value (KP1009 (CTX-M-15) [7]) was “Y (Y = MIC of 1 μg/mL to 10 μg/mL)”. The “AZT MPC4 CTX-M-14 KP1005” value (KP1005 (CTX-M-14)) was “Y (key: X = MIC of less than 1 μg/mL; Y = MIC of 1 μg/mL to 10 μg/mL; Z = MIC of greater than 10 μg/mL)”, the Ki (CTX-M-14) was 0.001 to 0.01 µM and the “AZT MPC4 ECL1002” value (ECL1002) was “Y (Y = MIC of 1 μg/mL to 10 μg/mL)”. For the same compound, the “AZT MPC4 CMY-6 EC1010” value (EC1010 (CMY-6) [8]) was “Y (key: X = MIC of less than 1 μg/mL; Y = MIC of 1 μg/mL to 10 μg/mL; Z = MIC of greater than 10 μg/mL)”, the “TIG MPC4 CMY-6 EC1010” value (EC1010 (CMY-6) [9]) was “X (key: X = MIC of less than 1 μg/mL; Y = MIC of 1 μg/mL to 10 μg/mL; Z = MIC of greater than 10 μg/mL)” and the “AZT MPC4 TEM-10 ec302” value (ec302 (TEM-10) [10]) was “X (key: X = MIC of less than 1 μg/mL; Y = MIC of 1 μg/mL to 10 μg/mL; Z = MIC of greater than 10 μg/mL)”. For the same compound, the “PAM1154/KPC-2 Biapenem MPC64” value (PAM1154/KPC-2) was “X (key: X = Less than 10; Y = 10 to 40; Z Greater than 40)”, the “AZT MPC4 CTX-M-15 KP1009” value (KP1009 (CTX-M-15) [11]) was “Y (key: X = MIC of less than 1 μg/mL; Y = MIC of 1 μg/mL to 10 μg/mL; Z = MIC of greater than 10 μg/mL)” and the “PAM1032/KPC-2 Biapenem MPC64” value (PAM1032/KPC-2) was “Z (Z Greater than 40)”.
